Measured values as given in US20250368649A1, “TETRAHYDROPYRIDOPYRIMIDINE PAN-KRAS INHIBITORS” (Mirati Therapeutics, Inc., priority 2022, published 2025).

Columns and labels:
KRas G12A = KRas G12A (Homo sapiens, UniProt P01116, G12A); format: binding; conditions: for inhibition at 0.01 µM: single point, 10 nM compound, read-out: Binding to KRas (% inhibition at 10 nM) G12A
KRas G12V = KRas G12V (Homo sapiens, UniProt P01116, G12V); experiment: biochemical; conditions: Binding to KRas (IC50 nM) G12V, TR-FRET displacement, KRas G12V
KRas G12V, sequence (P01116 1-169 isoform P01116-2 G12V): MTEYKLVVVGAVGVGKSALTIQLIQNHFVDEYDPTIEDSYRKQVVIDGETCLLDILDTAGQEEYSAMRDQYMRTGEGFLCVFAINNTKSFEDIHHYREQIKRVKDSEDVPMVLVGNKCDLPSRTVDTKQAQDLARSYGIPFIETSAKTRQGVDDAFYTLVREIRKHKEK

KRas Q61H = KRas Q61H (Homo sapiens, UniProt P01116, Q61H); experiment: KRas binding assay (TR-FRET displacement), KRas Q61H; conditions: for inhibition at 0.01 µM: single point, 10 nM compound
KRas Q61H, sequence (P01116 1-169 isoform P01116-2 Q61H): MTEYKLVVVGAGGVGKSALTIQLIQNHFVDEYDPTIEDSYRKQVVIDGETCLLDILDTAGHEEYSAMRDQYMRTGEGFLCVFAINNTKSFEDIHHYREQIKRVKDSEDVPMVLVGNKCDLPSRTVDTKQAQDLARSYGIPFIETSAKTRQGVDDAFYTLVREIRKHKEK

H460 cells = experiment: Inhibition of KRas-mediated phosphorylation of ERK (Cisbio HTRF pERK), H460 cells; format: cell-based; conditions: Homo sapiens; for IC50: NCI-H460, 3 h, 3 hr compound incubation, Cisbio pERK HTRF
KRas WT = KRas WT (Homo sapiens, UniProt P01116); experiment: KRas binding assay (TR-FRET displacement), KRas WT; conditions: for inhibition at 0.01 µM: single point, 10 nM compound
KRas WT, sequence (P01116 1-169 isoform P01116-2): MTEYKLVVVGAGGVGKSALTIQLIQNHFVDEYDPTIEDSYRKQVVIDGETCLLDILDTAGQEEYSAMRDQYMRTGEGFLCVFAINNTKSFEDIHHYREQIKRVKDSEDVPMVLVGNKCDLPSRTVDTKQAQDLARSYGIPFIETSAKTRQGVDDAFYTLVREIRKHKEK

H727 cells = experiment: Inhibition of KRas-mediated phosphorylation of ERK (Cisbio HTRF pERK), H727 cells; format: cell-based; conditions: Homo sapiens, NCI-H727, 3 h, 3 hr compound incubation, Cisbio pERK HTRF
KRas G12C = KRas G12C (Homo sapiens, UniProt P01116, G12C); format: binding; conditions: for inhibition at 0.01 µM: single point, 10 nM compound, read-out: Binding to KRas (% inhibition at 10 nM) G12C
KRas G12C, sequence (P01116 1-169 isoform P01116-2 G12C): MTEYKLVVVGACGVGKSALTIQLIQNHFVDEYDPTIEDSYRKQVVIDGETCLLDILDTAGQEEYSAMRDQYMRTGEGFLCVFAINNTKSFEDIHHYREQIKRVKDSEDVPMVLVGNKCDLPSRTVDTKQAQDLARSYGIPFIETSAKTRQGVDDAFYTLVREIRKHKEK

A549 cells = experiment: Inhibition of KRas-mediated phosphorylation of ERK (Cisbio HTRF pERK), A549 cells; format: cell-based; conditions: Homo sapiens; for IC50: A549, 3 h, 3 hr compound incubation, Cisbio pERK HTRF
H358 cells = experiment: Inhibition of KRas-mediated phosphorylation of ERK (Cisbio HTRF pERK), H358 cells; format: cell-based; conditions: Homo sapiens, NCI-H358, single point at 100 nM, 3 hrs compound incubation
KRas G12D = KRas G12D (Homo sapiens, UniProt P01116, G12D); experiment: biochemical; conditions: Binding to KRas (IC50 nM) G12D, TR-FRET displacement, KRas G12D
KRas G12D, sequence (P01116 1-169 isoform P01116-2 G12D): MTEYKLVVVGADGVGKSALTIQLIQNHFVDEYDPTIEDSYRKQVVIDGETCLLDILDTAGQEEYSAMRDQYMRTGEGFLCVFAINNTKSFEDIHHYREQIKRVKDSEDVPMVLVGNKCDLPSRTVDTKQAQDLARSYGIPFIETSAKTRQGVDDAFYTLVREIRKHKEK

KRas G12S = KRas G12S (Homo sapiens, UniProt P01116, G12S); format: binding; conditions: for inhibition at 0.01 µM: single point, 10 nM compound, read-out: Binding to KRas (% inhibition at 10 nM) G12S
KRas G12S, sequence (P01116 1-169 isoform P01116-2 G12S): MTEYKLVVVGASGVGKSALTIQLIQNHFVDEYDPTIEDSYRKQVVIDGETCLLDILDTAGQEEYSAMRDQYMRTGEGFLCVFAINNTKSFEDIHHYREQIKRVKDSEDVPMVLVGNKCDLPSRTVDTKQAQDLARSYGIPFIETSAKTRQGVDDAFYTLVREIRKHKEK

KRas G12R = KRas G12R (Homo sapiens, UniProt P01116, G12R); experiment: biochemical; conditions: Binding to KRas (IC50 nM) G12R, TR-FRET displacement, KRas G12R
KRas G12R, sequence (P01116 1-169 isoform P01116-2 G12R): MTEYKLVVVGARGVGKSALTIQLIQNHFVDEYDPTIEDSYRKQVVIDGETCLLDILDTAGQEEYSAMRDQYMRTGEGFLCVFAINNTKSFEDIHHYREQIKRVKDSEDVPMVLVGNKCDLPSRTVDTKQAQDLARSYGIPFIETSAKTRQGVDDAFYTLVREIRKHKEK

PSN1 cells = experiment: Inhibition of KRas-mediated phosphorylation of ERK (Cisbio HTRF pERK), PSN1 cells; format: cell-based; conditions: Homo sapiens, PSN1, 3 h, 3 hour compound incubation, Cisbio pERK HTRF
Method in brief: (§1)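 Phospho-ERK signal measured by HTRF after cells had been plated at 6,000/well in RPMI supplemented with 10% FBS on day 1.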

KRas G13D = KRas G13D (Homo sapiens, UniProt P01116, G13D); format: binding; conditions: for inhibition at 0.01 µM: single point, 10 nM compound, read-out: Binding to KRas (% inhibition at 10 nM) G13D
KRas G13D, sequence (P01116 1-169 isoform P01116-2 G13D): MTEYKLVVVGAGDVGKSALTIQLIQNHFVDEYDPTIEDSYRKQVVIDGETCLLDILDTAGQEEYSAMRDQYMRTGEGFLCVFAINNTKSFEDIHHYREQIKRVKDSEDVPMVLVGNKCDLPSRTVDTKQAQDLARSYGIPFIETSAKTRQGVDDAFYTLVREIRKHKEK

MKN1 cells = experiment: Inhibition of KRas-mediated phosphorylation of ERK (Cisbio HTRF pERK), MKN1 cells; format: cell-based; conditions: Homo sapiens, MKN-1, 3 hour compound incubation, Cisbio pERK HTRF
Method in brief: as §1

ASPC1 cells = experiment: Inhibition of KRas-mediated phosphorylation of ERK (Cisbio HTRF pERK), ASPC1 cells; format: cell-based; conditions: Homo sapiens, ASPC1, 3 h, AsPC-1 cells; 3 hr compound incubation; Cisbio pERK HTRF
HCT116 cells = experiment: Inhibition of KRas-mediated phosphorylation of ERK (Cisbio HTRF pERK), HCT116 cells; format: cell-based; conditions: Homo sapiens; for IC50: HCT-116, 3 h, 3 hr compound incubation, Cisbio pERK HTRF

KRas G12A, sequence (P01116 1-169 isoform P01116-2 G12A): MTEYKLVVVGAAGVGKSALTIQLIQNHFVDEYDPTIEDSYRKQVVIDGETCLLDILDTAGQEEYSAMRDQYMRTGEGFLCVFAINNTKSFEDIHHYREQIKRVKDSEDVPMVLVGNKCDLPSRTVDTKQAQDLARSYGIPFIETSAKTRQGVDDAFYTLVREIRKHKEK

SMILES	inhibition at 0.01 µM (KRas G12A)	IC50 (KRas G12V)	inhibition at 0.01 µM (KRas Q61H)	IC50 (H460 cells)	inhibition at 0.01 µM (KRas WT)	IC50 (H727 cells)	inhibition at 0.01 µM (KRas G12C)	IC50 (KRas G12D)	inhibition at 0.01 µM (KRas G12S)	IC50 (KRas G12R)	IC50 (PSN1 cells)	inhibition at 0.01 µM (KRas G13D)	IC50 (MKN1 cells)	IC50 (ASPC1 cells)	IC50 (A549 cells)	IC50 (HCT116 cells)	other results
CCc1c(F)ccc2cc(O)cc(N3CCc4c(nc(OC[C@@]56CCCN5C[C@H](F)C6)nc4N4CCCn5nc(NC)c(C)c5C4)C3)c12 [Example 376, 5-ethyl-6-fluoro-4-(2-(((2R,7aS)-2-fluorohexahydro-1H-pyrrolizin-7a-yl)methoxy)-4-(3-methyl-2-(methylamino)-7,8-dihydro-4H-pyrazolo[1,5-a][1,4]diazepin-5(6H)-yl)-5,6-dihydropyrido[3,4-d]pyrimidin-7(8H)-yl)naphthalen-2-ol]	54%	4 nM	51%	112 nM	53%	124 nM	78%	4 nM	70%	3 nM	> 10000 nM	61%	76.1 nM	55 nM			inhibition at 0.1 µM (A549 cells; single point at 100 nM, 3 hrs compound incubation): 34%; inhibition at 0.1 µM (H358 cells): 70%
CCc1c(F)ccc2cc(O)cc(N3CCc4c(nc(OC[C@@]56CCCN5C[C@H](F)C6)nc4N4CCCn5nc(C(=O)OC)cc5C4)C3)c12 [Example 411, methyl 5-(7-(8-ethyl-7-fluoro-3-hydroxynaphthalen-1-yl)-2-(((2R,7aS)-2-fluorohexahydro-1H-pyrrolizin-7a-yl)methoxy)-5,6,7,8-tetrahydropyrido[3,4-d]pyrimidin-4-yl)-5,6,7,8-tetrahydro-4H-pyrazolo[1,5-a][1,4]diazepine-2-carboxylate]	74%	< 2 nM	71%	260 nM	73%	54 nM	90%	< 2 nM	88%	< 2 nM	6540 nM	75%	30.1 nM	31 nM	111 nM	423 nM	
CCNc1cc2n(n1)CCCN(c1nc(OC[C@@]34CCCN3C[C@H](F)C4)nc3c1CCN(c1cc(O)cc4ccc(F)c(CC)c14)C3)C2 [Example 412, 5-ethyl-4-(4-(2-(ethylamino)-7,8-dihydro-4H-pyrazolo[1,5-a][1,4]diazepin-5(6H)-yl)-2-(((2R,7aS)-2-fluorohexahydro-1H-pyrrolizin-7a-yl)methoxy)-5,6-dihydropyrido[3,4-d]pyrimidin-7(8H)-yl)-6-fluoronaphthalen-2-ol]	62%	< 2 nM	61%	207 nM	62%	72 nM	83%	< 2 nM	76%	< 2 nM	> 10000 nM	60%	1.7 nM	96 nM	213 nM	614 nM	
CCc1c(F)ccc2cc(O)cc(N3CCc4c(nc(OC[C@@]56CCCN5C[C@H](F)C6)nc4N4CCCn5nc6c(c5C4)CCCNC6=O)C3)c12 [Example 415, 2-(7-(8-ethyl-7-fluoro-3-hydroxynaphthalen-1-yl)-2-(((2R,7aS)-2-fluorohexahydro-1H-pyrrolizin-7a-yl)methoxy)-5,6,7,8-tetrahydropyrido[3,4-d]pyrimidin-4-yl)-2,3,4,5,9,10,11,12-octahydroazepino[3′,4′:3,4]pyrazolo[1,5-a][1,4]diazepin-8(1H)-one]	100%	< 2 nM	100%	171 nM	99%	28 nM	100%	< 2 nM	100%	< 2 nM	1980 nM	99%	16 nM	26 nM	134 nM	504 nM	
CCc1c(F)ccc2cc(O)cc(N3CCc4c(nc(OC[C@@]56CCCN5C[C@H](F)C6)nc4N4CCCC5(CC(=O)NC5=O)C4)C3)c12 (stereo partly drawn) [Example 419, 7-(7-(8-ethyl-7-fluoro-3-hydroxynaphthalen-1-yl)-2-(((2R,7aS)-2-fluorohexahydro-1H-pyrrolizin-7a-yl)methoxy)-5,6,7,8-tetrahydropyrido[3,4-d]pyrimidin-4-yl)-2,7-diazaspiro[4.5]decane-1,3-dione]	54%	< 2 nM	90%	20 nM	62%	37 nM	83%	< 2 nM	72%	< 2 nM	194 nM	82%	6 nM	40 nM	9 nM	38 nM	
CCc1c(F)ccc2cc(O)cc(N3CCc4c(nc(OC[C@@]56CCCN5C[C@H](F)C6)nc4N4CCCOCC4)C3)c12 [Example 420, 5-ethyl-6-fluoro-4-(2-(((2R,7aS)-2-fluorohexahydro-1H-pyrrolizin-7a-yl)methoxy)-4-(1,4-oxazepan-4-yl)-5,6-dihydropyrido[3,4-d]pyrimidin-7(8H)-yl)naphthalen-2-ol]	96%	< 2 nM	97%	38 nM	95%	38 nM	98%	< 2 nM	97%	< 2 nM	2740 nM	95%	5.8 nM	66 nM	24 nM	143 nM	
CCc1c(F)ccc2cc(O)cc(N3CCc4c(nc(OC[C@@]56CCCN5C[C@H](F)C6)nc4N4Cc5cn(C(=O)N(C)C)nc5CC(C)C4)C3)c12 (stereo partly drawn) [Example 422, 5-(7-(8-ethyl-7-fluoro-3-hydroxynaphthalen-1-yl)-2-(((2R,7aS)-2-fluorohexahydro-1H-pyrrolizin-7a-yl)methoxy)-5,6,7,8-tetrahydropyrido[3,4-d]pyrimidin-4-yl)-N,N,7-trimethyl-5,6,7,8-tetrahydropyrazolo[4,3-c]azepine-2(4H)-carboxamide]	55%	< 2 nM	62%	169 nM	58%	78 nM	72%	2 nM	60%	3 nM	> 10000 nM	55%	189 nM	163 nM	147 nM	616 nM	
CCc1c(F)ccc2cccc(N3CCc4c(nc(OC[C@@]56CCCN5C[C@H](F)C6)nc4N4CCCn5nc(C(=O)N(C)C)cc5C4)C3)c12 [Example 481, 5-(7-(8-ethyl-7-fluoronaphthalen-1-yl)-2-(((2R,7aS)-2-fluorohexahydro-1H-pyrrolizin-7a-yl)methoxy)-5,6,7,8-tetrahydropyrido[3,4-d]pyrimidin-4-yl)-N,N-dimethyl-5,6,7,8-tetrahydro-4H-pyrazolo[1,5-a][1,4]diazepine-2-carboxamide]		2 nM				194 nM		< 2 nM		6 nM	> 10000 nM		480 nM	106 nM	285 nM		IC50 (KRas G12A; TR-FRET displacement, read-out: Binding to KRas (IC50 nM) G12A): 7 nM; IC50 (KRas Q61H; TR-FRET displacement): 13 nM; inhibition at 0.1 µM (H460 cells; NCI-H460, single point at 100 nM, 3 hrs compound incubation): -1%; IC50 (KRas WT; TR-FRET displacement): 11 nM; IC50 (KRas G12C; TR-FRET displacement, read-out: Binding to KRas (IC50 nM) G12C): 4 nM; IC50 (KRas G12S; TR-FRET displacement, read-out: Binding to KRas (IC50 nM) G12S): 5 nM; inhibition at 0.1 µM (HCT116 cells; HCT-116, single point at 100 nM, 3 hrs compound incubation): 8%; IC50 (KRas G13D; TR-FRET displacement, read-out: Binding to KRas (IC50 nM) G13D): 15 nM
